The target in assay [1] is T1, Phospho-2-dehydro-3-deoxyheptonate aldolase (Escherichia coli, UniProt C3TIE2). Description: Inhibition of recombinant Escherichia coli DAH7P synthase.
Assay [2] deals with T1, Phospho-2-dehydro-3-deoxyheptonate aldolase. Description: Competitive inhibition of recombinant Escherichia coli DAH7P synthase using PEP as substrate by Michaelis-Menten equation analysis using UV-visible spectrophotometry.

The structures appear in SMILES notation.

T1 sequence (C3TIE2 whole entry): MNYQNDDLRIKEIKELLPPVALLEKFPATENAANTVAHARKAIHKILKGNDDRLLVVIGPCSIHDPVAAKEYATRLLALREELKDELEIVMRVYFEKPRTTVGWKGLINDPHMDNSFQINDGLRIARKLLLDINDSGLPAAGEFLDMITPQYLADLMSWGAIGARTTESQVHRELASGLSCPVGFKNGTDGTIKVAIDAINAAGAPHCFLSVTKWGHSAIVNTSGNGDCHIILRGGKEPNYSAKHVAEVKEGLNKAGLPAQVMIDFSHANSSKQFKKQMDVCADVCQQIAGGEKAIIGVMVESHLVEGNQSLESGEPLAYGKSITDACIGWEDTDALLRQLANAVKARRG

The Ki is the dissociation constant of the complex between target and ligand, obtained from inhibition or displacement. For the molecule `C=C(CP(=O)(O)O)C(=O)O`, in assay [1], the Ki amounted to 270 µM. For `C/C(=C\P(=O)(O)O)C(=O)O`, in assay [1], the Ki amounted to 4.7 µM. Regarding `O=C(O)/C(=C/P(=O)(O)O)CCCCCBr`, the Ki in assay [2] was 3.6 µM. As to `O=C(O)C(=CCCCCOP(=O)(O)O)CP(=O)(O)O` (mixture of isomers), the Ki in assay [2] came to 154 µM.

Regarding `O=C(O)C(=CP(=O)(O)O)CCCCCOP(=O)(O)O` (mixture of isomers), the Ki in assay [2] was 5.3 µM.
